Active and inactive are the calls of the source. The rule behind the calls is not given here.
Key:
[1] = target: T1, D-3-phosphoglycerate dehydrogenase (Homo sapiens) (UniProt O43175); assay: Inhibition of recombinant human C-terminal His-tagged PHGDH (1 to 533 residues) expressed in Escherichia coli assessed as reduction in NADH formation at 100 uM using 3-phosphoglycerate as substrate preincubated measured for 7 mins in presence of NAD+ by spectrophotometric method relative to control
T1 sequence (whole entry): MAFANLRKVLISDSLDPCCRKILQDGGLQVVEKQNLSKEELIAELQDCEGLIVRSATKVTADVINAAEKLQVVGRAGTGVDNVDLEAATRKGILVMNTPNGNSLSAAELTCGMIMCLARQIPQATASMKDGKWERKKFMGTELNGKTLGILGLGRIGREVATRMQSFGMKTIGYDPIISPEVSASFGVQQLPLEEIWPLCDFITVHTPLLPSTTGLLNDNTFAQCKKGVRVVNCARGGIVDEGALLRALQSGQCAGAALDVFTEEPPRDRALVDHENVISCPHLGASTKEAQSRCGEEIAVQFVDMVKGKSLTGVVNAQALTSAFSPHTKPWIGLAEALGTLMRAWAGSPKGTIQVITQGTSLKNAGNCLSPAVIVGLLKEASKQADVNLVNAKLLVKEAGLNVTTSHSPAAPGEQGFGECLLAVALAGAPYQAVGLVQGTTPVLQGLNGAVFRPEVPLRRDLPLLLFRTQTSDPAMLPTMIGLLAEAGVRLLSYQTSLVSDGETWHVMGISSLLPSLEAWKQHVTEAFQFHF

[2] = target: T2, D-3-phosphoglycerate dehydrogenase (Homo sapiens, UniProt O43175); assay: Inhibition of recombinant human C-terminal His-tagged PHGDH (1 to 533 residues) expressed in Escherichia coli assessed as reduction in NADH formation using 3-phosphoglycerate as substrate in presence of NAD+ by resorufin fluorescence based PSAT1/diaphorase/PSPH coupled enzyme assay
T2 sequence (O43175 whole entry): T1 sequence (whole entry)

[3] = target: T2, D-3-phosphoglycerate dehydrogenase; assay: (§1) Non-competitive inhibition of recombinant human C-terminal His-tagged PHGDH (1 to 533 residues) expressed in Escherichia coli assessed as reduction in NADH formation preincubated for 30 mins followed by constant concentration of 3-phosphoglycerate substrate addition in presence of varying levels of NAD+ by resorufin fluorescence based PSAT1/diaphorase/PSPH coupled enzyme assay
[4] = target: T2, D-3-phosphoglycerate dehydrogenase; assay: as §1, with “varying levels” for “constant concentration”, “constant” for “varying levels of”, “NAD+ concentration” for “NAD+”
[5] = target: T1, D-3-phosphoglycerate dehydrogenase (Homo sapiens); assay: Ratio of IC50 for inhibition of PHGDH in human SiHa cells assessed as reduction in cell viability in serine repleted medium to IC50 for inhibition of PHGDH in human SiHa cells assessed as reduction in cell viability in serine depleted medium; format: cell-based
MDA-MB-231 = assay: Cytotoxicity against PHGDH deficient human MDA-MB-231 cells assessed as reduction in cell viability after 5 days by presto blue assay; format: functional, cell-based; conditions: MDA-MB-231, 120 h
[6] = target: T1, D-3-phosphoglycerate dehydrogenase (Homo sapiens); conditions: 160 uM
HL-60 = assay: Cytotoxicity against PHGDH knockout human HL60 cells assessed as reduction in cell viability after 5 days by presto blue assay; format: functional, cell-based; conditions: HL-60, 120 h
[7] = target: T1, D-3-phosphoglycerate dehydrogenase (Homo sapiens); assay: Ratio of IC50 for inhibition of PHGDH in human HL60 cells assessed as reduction in cell viability in serine repleted medium to IC50 for inhibition of PHGDH in human HL60 cells assessed as reduction in cell viability in serine depleted medium; format: cell-based

Row | SMILES | inhibition [1] | IC50 [2] | IC50 (MDA-MB-231) | IC50 (HL-60) | other results
1 | COc1ccc(S(=O)(=O)N2CCNCC2)cc1 | 35% | – | – | – | –
2 | O=C(C(=S)N1CCOCC1)c1ccccc1I | – | > 200 µM | – | – | –
3 | c1ccc(C2CNCCO2)cc1 (configuration not stated) | 61% | – | – | – | –
4 | O=C(C(=S)N1CCOCC1)c1ccccc1 | – | 30.9 µM | > 100 µM | > 100 µM | Ki [3]: 27 µM; Ki [4]: 40 µM; Ratio IC50 [5]: 9.1; inhibition [6]: Active
5 | S=C(Nc1ccccc1)NC1CCCCC1 | 28% | – | – | – | –
6 | S=C(c1ccc(Cl)c(Cl)c1)N1CCOCC1 [(3,4-DICHLOROPHENYL)(MORPHOLINO)METHANETHIONE] | 96% | – | > 100 µM | > 100 µM | –
7 | O=C(C(=S)N1CCOCC1)c1cccc(Br)c1 | – | > 200 µM | – | – | –
8 | O=C(C(=S)N1CCOCC1)c1ccc(-c2ccccc2)cc1 | – | > 200 µM | – | – | –
9 | O=C(C(=S)N1CCOCC1)c1ccc(F)cc1 | – | 68.9 µM | > 100 µM | > 100 µM | Ratio IC50 [5]: > 2.3; Ratio IC50 [7]: 1.5
10 | O=C(C(=S)N1CCOCC1)c1ccc(Br)cc1 | – | 131 µM | > 100 µM | > 100 µM | Ratio IC50 [5]: 2.6; Ratio IC50 [7]: 2.2
11 | O=C(C(=S)N1CCOCC1)c1ccccc1F | – | > 200 µM | – | – | –
12 | O=C1C=CC(=O)c2ccccc21 | 95% | – | – | – | –
13 | CCCCCN1C(=O)NC(c2ccccc2)(c2ccccc2)C1=O | 25% | – | – | – | –
14 | O=C(C(=S)N1CCOCC1)c1ccccc1Br | – | 161 µM | – | – | –
15 | O=C(NC(c1ccccc1)c1ccccc1)c1ccc([N+](=O)[O-])cc1 | 54% | – | – | – | –
16 | Nc1nc2c(s1)CCCC2 | 46% | – | – | – | –

Row | SMILES | inhibition [1] | IC50 [2] | IC50 (MDA-MB-231) | IC50 (HL-60) | other results
17 | O=C(C(=S)N1CCOCC1)c1cccc(Cl)c1 | – | > 200 µM | > 100 µM | > 100 µM | –
18 | O=C(C(=S)N1CCOCC1)c1cccc([N+](=O)[O-])c1 | – | 88.1 µM | – | – | –
19 | O=C1C=CC(=O)N1c1ccccc1Cl | 78% | – | – | – | –
20 | S=C(NC1CCCCC1)Sc1ccccc1 | 51% | – | – | – | –
21 | O=C(Nc1ccccc1[N+](=O)[O-])c1ccc(Cl)cc1 | 59% | 75.2 µM | > 100 µM | > 100 µM | –
22 | Cc1cc(C)nc(NC(=O)c2ccc([N+](=O)[O-])cc2)n1 | 13% | – | – | – | –
23 | O=C(C(=S)N1CCOCC1)c1ccccc1Cl | – | > 200 µM | > 100 µM | > 100 µM | –
24 | O=C(C(=S)N1CCOCC1)c1ccc([N+](=O)[O-])cc1 | – | 35.1 µM | > 100 µM | > 100 µM | Ratio IC50 [5]: 3; Ratio IC50 [7]: 2.9
25 | O=C(C(=S)N1CCOCC1)c1cccc(F)c1 | – | > 200 µM | – | – | –
26 | FC(F)(F)c1cc(NC(=S)N2CCN(Cc3ccccc3)CC2)cc(C(F)(F)F)c1 | 80% | – | – | – | –
27 | O=C(C(=S)N1CCOCC1)c1cccc(I)c1 | – | > 200 µM | – | – | –
28 | O=C(C(=S)N1CCOCC1)c1ccc(I)cc1 | – | 178 µM | > 100 µM | > 100 µM | Ratio IC50 [5]: 2.8; Ratio IC50 [7]: 2.8
29 | O=C1C=CC(=O)C=C1 | 100% | – | – | – | –
30 | O=C(C(=S)N1CCOCC1)c1ccccc1[N+](=O)[O-] | – | > 200 µM | – | – | –
31 | O=C(N1CCN(c2ccccc2)CC1)n1nnc2ccccc21 | 37% | – | – | – | –
32 | O=C(C(=S)N1CCOCC1)c1ccc(Cl)cc1 | – | 8.7 µM | > 100 µM | > 100 µM | Ratio IC50 [5]: 3.2; Ratio IC50 [7]: 3.3
